Experimental data as given in PubChem BioAssay AID1996.
Values after ≈ are worked out from the molar mass of the structure shown.

details: buffer; pH 7.4; 200.0 µM

Row | SMILES | solubility kinetic [µg/mL]
1 | CCOC(=O)C1CCCCN1Cc1cn(C)nc1-c1ccccc1F (centres undefined) | > 51.8
2 | CCNC(=O)CC1C(=O)N(c2cccc(C)c2)C(=O)N1CCC(C)C (centres undefined) | > 51.8
3 | Cc1ccc(SCC(=O)OCC(=O)NCCc2ccc(S(N)(=O)=O)cc2)c(C)c1 | 51.3 (≈ 118 µM)
4 | CCC(C)(C)NC(=O)c1ccc2c(c1)OCCO2 | > 37.4
5 | COc1ccc(C(=O)C2CCCN(C(=O)C3=CCCC3)C2)c(C)c1 (centres undefined) | > 49.1
6 | COc1ccc(OCC(=O)O/N=C(\N)c2ccc(OC)cc2)cc1 | 1.2 (≈ 3.63 µM)
7 | CC(C)C(=O)Nc1c(-c2ccccc2F)c(=O)c2ccccc2n1C | 49.4 (≈ 146 µM)
8 | CCCN1CCN(CC(=O)Nc2nc3ccccc3s2)CC1 | 0.6 (≈ 1.88 µM)
9 | CCOC(=O)N1CCN(CC(=O)Nc2ccc(F)cc2)CC1 | > 46.4
10 | CS(=O)(=O)N1CCN(c2ccc(NC(=O)c3ccccc3)cc2)CC1 | 1 (≈ 2.78 µM)
11 | O=C(/C=C/c1cccc2ccccc12)N1CCOCC1 | > 40.1
12 | CCOC(=O)C(=CNc1cc(OC)ccc1-n1cccc1)C(=O)OCC | 1 (≈ 2.79 µM)
13 | CN(C)C(=O)CN1C(=O)c2cccc3cccc1c23 | 33.1 (≈ 130 µM)
14 | NC1=NC(=O)C(Cc2ccc(OC(F)(F)F)cc2)S1 (centres undefined) | > 43.5
15 | CCn1nc(C)c(/C=N/NC(=O)Cn2cncn2)c1C | > 41.3
16 | O=C(Nc1nccs1)[C@@H]1CCCN1S(=O)(=O)c1ccc(Cl)cc1 | 31.5 (≈ 84.7 µM)
17 | CCCN1C(=O)C(O)(C2COC(C)(C)CC2=O)c2ccccc21 (centres undefined) | 33.7 (≈ 106 µM)
18 | N#Cc1cccc(Cn2cc(C(F)(F)F)ccc2=O)c1 | 41.7 (≈ 150 µM)
19 | Cc1ccc(S(=O)(=O)N2CCOCC2)cc1NC(=O)CNCc1ccc(Cl)cc1Cl | 5.4 (≈ 11.4 µM)
20 | Cc1ccccc1OC(C)C(=O)N1CCN(c2ccccn2)CC1 (centres undefined) | > 48.8

Row | SMILES | solubility kinetic [µg/mL]
21 | O=C(/C=C/c1cccs1)c1ccc(N2CCOCC2)cc1 | 4.8 (≈ 16 µM)
22 | CS(=O)(=O)c1ccc(C(=O)NC2CCCc3ccccc32)cc1 (centres undefined) | 35.2 (≈ 107 µM)
23 | CC(C)c1ccc(N2C(=O)CC(Sc3ncccn3)C2=O)cc1 (centres undefined) | 4 (≈ 12.2 µM)
24 | O=C(Nc1nccs1)c1ccc(-c2ccc(Cl)cc2)o1 | 1.9 (≈ 6.23 µM)
25 | Cl.NCCCCCc1nnc(SCC(N)=O)o1 | > 42.1
26 | COc1cc(C(=O)NC(=S)N2CCCCCC2)cc(OC)c1OC | 15.8 (≈ 44.8 µM)
27 | Cc1ccc(Nc2nc(-c3ccccc3)cs2)nc1 | < 0.2
28 | CC(=O)N(Cc1ccccn1)Cc1ccco1 | > 34.5
29 | Cc1cc(C)cc(OCC(=O)Nc2nc(-c3ccccn3)cs2)c1 | 1.2 (≈ 3.54 µM)
30 | C=CCn1c(NCc2ccc(OC)cc2O)nc2ccccc21 | 37.9 (≈ 123 µM)
31 | COc1ccc2[nH]c(C(=O)O)c(NC(=O)c3ccccc3[N+](=O)[O-])c2c1 | > 53.3
32 | Nc1ccc(Oc2c(Cl)cccc2Cl)nc1 | > 38.3
33 | Cc1noc(C)c1S(=O)(=O)N(Cc1ccccc1)C(C)C | 36.5 (≈ 118 µM)
34 | COC(=O)c1ccc(-c2noc(CN3CCCC(CNC(C)=O)C3)n2)cc1 (centres undefined) | 43.3 (≈ 116 µM)
35 | O=C(C1CCC1)N1CCN(c2cccc(C(F)(F)F)c2)CC1 | 38.8 (≈ 124 µM)
36 | Cc1cc(C(=O)COC(=O)c2cccn2C)c(C)n1Cc1ccco1 | 2.8 (≈ 8.23 µM)
37 | CC1(C)CC(=O)C2=C(C1)Nc1ccccc1NC2c1ccccc1F (centres undefined) | 10.5 (≈ 31.2 µM)
38 | COc1ccc(CNc2nccs2)cc1 | 19.5 (≈ 88.5 µM)
39 | O=C(Cc1ccccc1F)Nc1ccccc1-c1ccccc1 | 7.1 (≈ 23.3 µM)
40 | Cc1ccnc(NC(=O)c2ccc3c(c2)OCO3)c1 | > 38.4

Row | SMILES | solubility kinetic [µg/mL]
41 | O=C1CCCCCN1CP(=O)(O)CN1CCCCCC1=O | 46.1 (≈ 146 µM)
42 | O=C(NCC1CCCCC1)c1ccccc1[N+](=O)[O-] | > 39.3
43 | CCC(=NCCc1ccccc1)c1c(O)[nH]c(=O)[nH]c1=O | > 43.1
44 | Cc1cc(-c2ccccc2)c2ccc(NC(=O)C(C)(C)C)nc2n1 | 0.6 (≈ 1.88 µM)
45 | O=S(=O)(Cc1cc(Cl)nc(-c2cccnc2)n1)c1ccccc1 | 40.7 (≈ 118 µM)
46 | O=[N+]([O-])c1cccc(C(=NCc2ccccc2)NO)c1 | > 40.7
47 | Cc1nc2ccccc2c(=O)n1-c1cc([N+](=O)[O-])cc([N+](=O)[O-])c1 | 17.1 (≈ 52.4 µM)
48 | C=CCSc1nc(N)cc(=O)[nH]1 | > 27.5
49 | O=C(Cc1ccc(Cl)cc1)Nc1ccc2oc(=O)ccc2c1 | 2.9 (≈ 9.24 µM)
50 | O=C(c1cccc(F)c1F)N1CCCc2ccccc21 | 31.1 (≈ 114 µM)
51 | COc1ccc(NC(=O)C2CCOC2=O)cc1 (centres undefined) | > 35.3
52 | COc1cc(C(=O)NCCNC(=O)C2CCCNC2=O)cc(OC)c1OC (centres undefined) | > 56.9
53 | Cc1ccc(C(=O)CCC(=O)N2CCC(C(N)=O)CC2)cc1 | 43.5 (≈ 144 µM)
54 | O=CC(Br)P(=O)(N1CCOCC1)N1CCOCC1 (centres undefined) | > 51.2
55 | O=C(NCc1csc(-c2ccccc2)n1)c1cc(F)cc2c1OCOC2 | 5.7 (≈ 15.4 µM)
56 | COc1ccc(NC(=O)Cc2cccs2)cc1S(=O)(=O)N1CCCCC1 | 44.4 (≈ 113 µM)
57 | CCCC(=O)N(Cc1cc(=O)[nH]c2ccccc12)c1ccccc1 | > 48.1
58 | O=C(CNCCO)Nc1ccc(F)c(Cl)c1 | > 37
59 | O=C(Nc1ccc(F)c(Cl)c1)c1cc(-c2ccco2)on1 | < 0.3
